In US20240060146A1, “CHEMICAL SUBSTANCE EVALUATION SYSTEM USING MULTICOLOR LIGHT-EMITTING CELLS” (TOHOKU UNIVERSITY, priority 2020, published 2024):
Structures can show the parent of a compound that is named as a salt.

Columns and labels:
Assay type in all cases: cell-based
[1] = system: 2H4 cells; test: IL-2 Luc LTT: evaluation of chemical substance in 2H4 cells; conditions: 1 h chemical, then 25 nM PMA and 1 μM ionomycin 24 h, class from Min % suppression (nIL2LA) and Min Inh-GAPLA
Protocol: (§1) 2H4 cells were established from Jurkat cells according to the method described in PTL 1. First, for the preparation of 2H4 cells, a plasmid having SLG introduced downstream of the IL-2 promoter, a plasmid having SLR introduced downstream of the G3PDH promoter, and a plasmid having SLO introduced downstream of the INF-γ promoter were prepared as internal standards. These plasmids contained a resistance gene for hygromycin B, puromycin, and neomycin downstream of SLG, SLR, and SLO, respectively. The conditions for drug selection after transfection of the host Jurkat cells were as follows: in the primary selection, the cells were cultured for 1 week in the presence of a drug. In the secondary selection culture, the cells that survived in the primary selection culture were seeded in a 96-well plate at 1 cell/well or 200 cells/well, and cultured for 2 weeks under the same drug conditions. After the secondary selection culture, the cells were subjected to clone selection from the two points of signal intensity and signal induction by drug treatment. The G3PDH promoter SLR was first introduced to establish monochromatic stable cell line Jurkat: G3PDH-SLR #14D1 cells. These cells were used as the parent cell line to introduce the INF-γ promoter SLO, thereby establishing bichromatic stable cell line Jurkat: INFγ-SLO/G3PDH-SLR #2B12 cells. Subsequently, the obtained cells were used as a parent cell line to introduce the IL-2 promoter SLG, thereby establishing trichromatic stable cell line Jurkat IL-2-SLG/INFγ-SLO/G3PDH-SLR #2H4 cells.
The chemical substances listed in Table 1 were evaluated using 2H4 cells. 2H4 cells were seeded in a 96-well plate at 1×10^4/well and treated with each chemical substance for 1 hour, followed by incubating the cells with 25 nM PMA and 1 μM ionomycin for 24 hours. After 24 hours from the treatment with PMA and ionomycin, Tripluck Assay Reagent (manufactured by Toyobo Co., Ltd.) was added, and the amount of luminescence was measured with a Phelios microplate luminometer (manufactured by Atto Corporation). For control, 2H4 cells untreated with a chemical substance were also examined in the same manner. The amount of luminescence of SLG luciferase activity (IL2LA), SLR luciferase activity (GAPLA), and SLO luciferase activity (IFNLA) was measured, and IL-2LA and IFNLA were each normalized by GAPLA and determined to be nIL2LA and nIFNLA, respectively. Thereafter, for the concentration of each chemical substance, “% suppression” and “Inh-GAPLA” were determined according to the following formulas (1) and (2), and the chemical substances were evaluated by using their minimum value (Min % suppression, Min Inh-GAPLA).
In the evaluation, for control, PMA/ionomycin-treated 2H4 cells and PMA/ionomycin-untreated 2H4 cells were also measured for nIL2LA.
(§2) % suppression={(nIL2LA in 2H4 cells untreated with a chemical substance)−(nIL2LA in 2H4 cells treated with a chemical substance)}×100/(nIL2LA in 2H4 cells untreated with a chemical substance) ---(1) Inh-GAPLA=(GAPLA in 2H4 cells treated with a chemical substance)/(GAPLA in 2H4 cells untreated with a chemical substance) ---(2)

[2] = system: 2H4 cells; test: IL-2 Luc assay: evaluation of chemical substance in 2H4 cells; conditions: 1 h chemical, then PMA/ionomycin, luminescence after six hours, class from Min % suppression of nIL2LA
Protocol: as §1, §2
The chemical substances listed in Table 1 were evaluated using 2H4 cells. 2H4 cells were seeded in a 96-well plate at 2×10^5 cells/50 μl/well and treated with each chemical substance for 1 hour, followed by incubating the cells with 25 nM PMA and 1 µM ionomycin […]. After six hours from the treatment with PMA and ionomycin, Tripluc: Assay Reagent (manufactured by Toyobo Co., Ltd.) was added, and the amount of luminescence was measured with a Phelios microplate luminometer (manufactured by Atto Corporation). For control, 2H4 cells untreated with a chemical substance were also examined in the same manner. The amount of luminescence of SLG luciferase activity (IL2LA), SLR luciferase activity (GAPLA), and SLO luciferase activity (IFNLA) was measured, and IL-2LA and IFNLA were each normalized by GAPLA and determined to be nIL2LA and nIFNLA, respectively. Thereafter, for the concentration of each chemical substance, the value of suppression was calculated according to formula (1) above, and the chemical substances were evaluated by using their minimum value (Min suppression).

[3] = system: 2H4 cells; test: Evaluation of combination of IL-2 Luc LTT and IL-2 Luc assay; design: key: Positive (Pos): If the result is either LCT in the IL-2 Luc LTT or S in the IL-2 Luc assay, or both, the chemical substance is determined to be an immunosuppressive substance.; Negative (Neg): In the case other than the above, the chemical substance is determined to be a non-immunosuppressive substance; conditions: LCT in IL-2 Luc LTT or S in IL-2 Luc assay = Pos
Protocol: Positive (Pos): If the result is either LCT in the IL-2 Luc LTT or S in the IL-2 Luc assay, or both, the chemical substance is determined to be an immunosuppressive substance. Negative (Neg): In the case other than the above, the chemical substance is determined to be a non-immunosuppressive substance.

SMILES | IL-2 Luc LTT [1] | IL-2 Luc Assay [2] | Evaluation of Combination [3]
Nc1nc2nc[nH]c2c(=S)[nH]1 [6-Thioguanine] | LCT (Min % suppression ≤−35 and Min Inh-GAPLA <0.7: Leukocyte toxic (denoted as “LCT”; determined to have cell growth inhibition action and/or metabolic activity inhibition action)) | N (−35<Min % suppression <35: No Effect (denoted as “N”; determined to not affect immunity)) | Pos
COc1cccc2c1C(=O)c1c(O)c3c(c(O)c1C2=O)C[C@@](O)(C(=O)CO)C[C@@H]3O[C@H]1C[C@H](N)[C@H](O)[C@H](C)O1 [Doxorubicin hydrochloride] | LCT (Min % suppression ≤−35 and Min Inh-GAPLA <0.7: Leukocyte toxic (denoted as “LCT”; determined to have cell growth inhibition action and/or metabolic activity inhibition action)) | S (Min %; suppression ≥35: Suppression (denoted as “S”; determined to have immunosuppressive action)) | Pos
Cc1ccc(=O)n(-c2ccccc2)c1 [Pirfenidone] | I (−35<Min % suppression <35 and 0.7≤Min Inh-GAPLA: Inconclusive (denoted as “I”; possibly not measurable due to low water solubility)) | S (Min %; suppression ≥35: Suppression (denoted as “S”; determined to have immunosuppressive action)) | Pos
CN(Cc1cnc2nc(N)nc(N)c2n1)c1ccc(C(=O)N[C@@H](CCC(=O)O)C(=O)O)cc1 [Methotrexate (MTX), Methotrexate] | NLCT | N (−35<Min % suppression <35: No Effect (denoted as “N”; determined to not affect immunity)) | Neg
O=C([O-])[O-].[Li+].[Li+] [Lithium carbonate] | I (−35<Min % suppression <35 and 0.7≤Min Inh-GAPLA: Inconclusive (denoted as “I”; possibly not measurable due to low water solubility)) | N (−35<Min % suppression <35: No Effect (denoted as “N”; determined to not affect immunity)) | Neg
CC(=O)O[C@H]1C(=O)[C@@]2(C)[C@H]([C@H](OC(=O)c3ccccc3)[C@]3(O)C[C@H](OC(=O)[C@H](O)[C@@H](NC(=O)c4ccccc4)c4ccccc4)C(C)=C1C3(C)C)[C@]1(OC(C)=O)CO[C@@H]1C[C@@H]2O [Paclitaxel] | LCT (Min % suppression ≤−35 and Min Inh-GAPLA <0.7: Leukocyte toxic (denoted as “LCT”; determined to have cell growth inhibition action and/or metabolic activity inhibition action)) | S (Min %; suppression ≥35: Suppression (denoted as “S”; determined to have immunosuppressive action)) | Pos
Cc1cn([C@H]2C[C@H](N=[N+]=[N-])[C@@H](CO)O2)c(=O)[nH]c1=O [Retrovir] | NLCT | A (Min suppression ≤−35: Augmentation (denoted as “A”; determined to have immunoaugmenting action)) | Pos
NC(=O)c1cccnc1 [Nicotinamide (NA), Nicotinamide] | LCT (Min % suppression ≤−35 and Min Inh-GAPLA <0.7: Leukocyte toxic (denoted as “LCT”; determined to have cell growth inhibition action and/or metabolic activity inhibition action)) | A (Min suppression ≤−35: Augmentation (denoted as “A”; determined to have immunoaugmenting action)) | Pos
